Where two headings read alike, the source gives them in different places.
What was measured:
SARS-CoV-2 WA/1 [1] = assay: microbe, parasite or virus in culture; type: cell-based; conditions: Severe acute respiratory syndrome coronavirus 2, read-out: EC50, inhibition of SARS-CoV-2 replication
SARS-CoV Urbani = type: cell-based; conditions: HAE, two donors, 10, 1, 0.1 μM, MOI 0.5, 72 hpi
bat-CoV RsSHC014 = type: cell-based
SARS-CoV-2 WA/1 [2] = type: cell-based
SARS-CoV-2 Omicron BA.1 = type: cell-based
MERS-CoV = type: cell-based; conditions: HAE, two donors, 10, 1, 0.1 μM, MOI 0.5, 72 hpi
[3] = test system: SARS-like bat-CoV RsSHC014; type: in vivo, mouse
[4] = test system: SARS-CoV-2 Omicron (B.1.1.529/BA.1); conditions: mouse, in vivo
[5] = test system: primary human airway epithelial (HAE) cells
[6] = not told; cited from earlier work
[7] = Mouse GS-5245 pharmacokinetic study; conditions: 30 mg/kg GS-5245 oral, timepoints over 24 hr, three mouse strains
[8] = direct oral dosing of GS-441524, non-human primates; cited from earlier work

CC(C)C(=O)OC[C@H]1O[C@@](C#N)(c2ccc3c(N)ncnn23)[C@H](O)[C@@H]1O [GS-5245]
EC50 (SARS-CoV-2 WA/1 [1]): 740 nM
infectious virus production (PFU in apical washes) (SARS-CoV Urbani): dose-dependent reduction in infectious virus production
infectious virus production (PFU in apical washes) (bat-CoV RsSHC014): dose-dependent reduction in infectious virus production
infectious virus production (PFU in apical washes) (SARS-CoV-2 WA/1 [2]): dose-dependent reduction in infectious virus production
infectious virus production (PFU in apical washes) (SARS-CoV-2 Omicron BA.1): dose-dependent reduction in infectious virus production
infectious virus production (PFU in apical washes) (MERS-CoV): dose-dependent reduction in infectious virus production
viral titers and gross lung pathology ([3]; 10 mg/kg BID, 12 or 24 hpi, 4 dpi): did not exhibit reduced viral titers
body weight compared to vehicle-treated mice ([3]; 30 mg/kg BID initiated at 12 hpi): increased weight
virus lung titers and gross lung pathology ([3]; 30 mg/kg BID, irrespective of initiation time (12 or 24 hpi), 4 dpi): reduced virus lung titers and gross lung pathology
acute lung injury scores (ATS and DAD) ([3]; 30 mg/kg initiated 24 hpi, 4 dpi): reductions in DAD scores only
acute lung injury scores (ATS and DAD) ([3]; 30 mg/kg initiated at 12 hpi, 4 dpi): reduced acute lung injury scores with both scoring tools
ATS ALI and DAD scores [4]: Unlike ATS ALI scores (Fig. 6D), DAD scores were different
lung viral titers relative to vehicle [4]: lower lung viral titers
macroscopic lung pathology [4]: less macroscopic lung pathology
cytotoxicity (A549-hACE2 cells): without cytotoxicity
cytotoxicity (LLC-MK2-TMPRSS2 cells): without cytotoxicity
cytotoxicity in HAE [5]: without measurable cytotoxicity
cellular permeability [6]: increased cellular permeability over GS-441524
intact GS-5245 prodrug in plasma [7]: No intact GS-5245 prodrug was observed at any timepoint sampled

CCC(CC)COC(=O)[C@H](C)N[P@](=O)(OC[C@H]1O[C@@](C#N)(c2ccc3c(N)ncnn23)[C@H](O)[C@@H]1O)Oc1ccccc1 [remdesivir]
EC50 (SARS-CoV-2 WA/1 [1]): 190 nM
cytotoxicity (LLC-MK2-TMPRSS2 cells): without cytotoxicity

N#C[C@@]1(c2ccc3c(N)ncnn23)O[C@H](CO)[C@@H](O)[C@H]1O [GS-441524]
EC50 (SARS-CoV-2 WA/1 [1]): 4600 nM
cytotoxicity (LLC-MK2-TMPRSS2 cells): without cytotoxicity
oral bioavailability [8]: low bioavailability

CC(C)(C)[C@H](NC(=O)C(F)(F)F)C(=O)N1C[C@H]2[C@@H]([C@H]1C(=O)N[C@H](C#N)C[C@@H]1CCNC1=O)C2(C)C [nirmatrelvir]
EC50 (SARS-CoV-2 WA/1 [1]): 70 nM

Reference: PMC11333937 (Science translational medicine, 2024)
